Laboratory results from patent US20080038809A1, “ISOLATED LECTIN POLYPEPTIDES CONSISTING OF TRUNCATED […] UDP-GalNAc:POLYPEPTIDE N- ACETYLGALACTOSAMINYLTRANSFERASES” (GLYCOZYM APS, priority 2002, published 2008).
pIC50: −log10 of the molar value. Entries after “also recorded” stand apart in the source; their conditions may differ.

Key:
[1] = system: MUC5AC in HT-29 MTX cells; experiment: MUC5AC secretion, SDS-PAGE western blot of media with LUM5-1 (FIG. 17); assay type: cell-based, human; conditions: 5 mM, continuous culture, media at 14 days
Experimental: FIG. 17 illustrates SDS-PAGE Western analysis of MUC5AC secretion from HT29MTX cells using polyclonal anti-MUC5AC antibody LUM5-1. In order to evaluate GalNAcβ-benzyl as an inhibitor of mucin glycosylation and secretion we used the HT-29 metotrexate (MTX) cultured colon carcinoma cells of mucin secreting phenotype. HT-29 MTX cells have a goblet cell like phenotype with constitutive production of MUC5AC. Cells were continuously grown up to 21 days in the presence of 5 mM GalNAcα-benzyl, 5 mM GalNAcβ-benzyl, 5 mM GlcNAcα-benzyl and without inhibitor. […] In striking contrast, MUC5AC was not detected in the media from cells treated with GalNAcα-benzyl (Lane 3) or GalNAcβ-benzyl (Lane 4). Results shown are from media collected at 14 days.
In order to evaluate GalNAcβ-benzyl as an inhibitor of mucin glycosylation and secretion we used the cultured colon carcinoma cells of mucin secreting phenotypes: HT-29 metotrexate (MTX) cells selected from the HT-29 cell line by culture in the presence of MTX (kind gift from G. Huet, France). The HT-29 MTX cells were selected to yield a goblet cell like phenotype with constitutive production of MUC5AC. In order to ensure proper goblet cell differentiation the HT29MTX cell line were continuously grown up to 21 days in the presence of 5 mM GalNAcα-benzyl, 5 mM GalNAcβ-benzyl, 5 mM GlcNAcα-benzyl and without inhibitor using culture conditions as described in Hennebicq-Reig et al. (Permanent exposure of mucin-secreting HT-29 cells to benzyl-N-acetyl-alpha-D-galactosaminide induces abnormal O-glycosylation of mucins and inhibits constitutive and stimulated MUC5AC secretion. Biochem J. 1998; 334:283-95). […] Furthermore the viscosity of the media from cells with and without inhibitor was evaluated using viscosity micro-measurement.

[2] = system: MUC1 in CHO1d1D/MUC1F-clone2 cells; experiment: MUC1 expression in cell lysates, immunoprecipitation and SDS-PAGE western blot (FIGS. 12-15); assay type: cell-based, Chinese Hamster; conditions: 2 mM, 48 hours
Experimental: FIG. 12 is an SDS-PAGE Western analysis of GalNAcα-benzyl inhibition of MUC1 expression in CHO 1d1D cells stably transfected with a full coding MUC1 construct. […] Cells were further treated with 2 mM GalNAcα-benzyl (lanes 1, 4, 7, 10), 2 mM GlcNAcα-benzyl (lanes 2, 5, 8, 11) or no inhibitor (lanes 3, 6, 9, 12). Cells were washed and lysed at 24 or 48 hours and the lysates subjected to immunoprecipitation with monoclonal antibody HMFG2, which broadly recognize MUC1 glycoforms. Immunoprecipitates were analysed by SDS-PAGE and western blot using HMFG2 antibody to detect MUC1 expression. Lane M indicates molecular markers with assigned mw. Lane C includes a control MUC1 180-mer tandem repeat peptide which has been GalNAc-glycosylated with 3 moles GalNAc per repeat using GalNAc-T2. The sharp bands migrating at 100-200 kd are immunoglobulins indicated by IgG.
Cells were further treated with 2 mM GalNAcα-benzyl (lanes 1, 4, 7, 10), 2 mM GalNAcβ-benzyl (lanes 2, 5, 8, 11) or 2 mM GlcNAcα-benzyl (lanes 3, 6, 9, 12). Cells were washed and lysed at 36 hours and the lysates subjected to immunoprecipitation with monoclonal antibodies HMFG2 (lanes 1-6) or 5E5 (lanes 7-12). Immunoprecipitates were analysed by SDS-PAGE and western blot using HMFG2 antibody. Lanes M and C as described in legend to FIG. 7.
We next analysed the expression of MUC1 produced by CHO1d1D/MUC1F-clone2 cells by SDS-PAGE western analysis. […] Cells were further treated with 2 mM GalNAcα-benzyl, GlcNAcα-benzyl or no inhibitor. Cells were washed and lysed at 24 or 48 hours and the lysates subjected to immunoprecipitation with monoclonal antibody HMFG2, which broadly recognize MUC1 glycoforms. Immunoprecipitates were analysed by SDS-PAGE and western blot using HMFG2 antibody to detect MUC1 expression. […] In striking contrast, treatment with GalNAcα-benzyl had significant effect after 48 hours. […] This indicates some heterogeneity in glycosylation.
As shown in Examples 2 and 3, polypeptide GalNAc-transferases contain lectin domains with binding properties for GalNAc-peptides including GalNAc-MUC1 peptides. […] GalNAcβ-benzyl, the β-anomeric configuration of GalNAc-benzyl (there is a β linkage between the N-acetylgalactosamine and the benzyl ring), was custom synthesized by Alberta Research Council (Canada), and its structure was confirmed by mass spectrometry and ^1H-NMR. […] Cells were then treated with 2 mM GalNAcα-benzyl, GalNAcβ-benzyl, or GlcNAcα-benzyl as control (GlcNAcα-benzyl was shown in Example 4 to have no effect). Cells were washed and lysed as described above after 36 hours and the lysates subjected to immunoprecipitation with anti-MUC1 monoclonal antibodies HMFG2 or 5E5. […] FIG. 15 illustrates the same experiment as in FIG. 14 except that the detection antibody is 5E5 and only Tn and STn MUC1 glycoforms are visualised.

GalNAc-T2 lectin domain = molecular target: T1, GalNAc-T2 lectin domain (Homo sapiens, UniProt Q10471); experiment: Inhibition of GalNAc-T2 lectin domain (T2ld) binding to GalNAc-MUC1 glycopeptide, ELISA
T1 construct: comprises amino acid residues 408-571 of GALNT2; made in house; host or cells: baculovirus (pAcGP67-A), virus made in Sf9, protein produced in High Five insect cells
T1 sequence (Q10471 408-571): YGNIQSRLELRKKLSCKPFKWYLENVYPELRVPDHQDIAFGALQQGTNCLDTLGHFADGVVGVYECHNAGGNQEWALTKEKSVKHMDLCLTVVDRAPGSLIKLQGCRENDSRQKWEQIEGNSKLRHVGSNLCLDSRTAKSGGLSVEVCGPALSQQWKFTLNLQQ
Experimental: (§1) Direct binding ELISA assay was developed as follows: Polystyrene microtiter plates (Maxisorb, Nunc, Denmark) were coated with peptides or enzymatically glycosylated glycopeptides in PBS overnight at 4° C. Plates were washed and blocked with 0.1% Tween20 and 0.2% BSA in PBS for 1 h at room temperature, followed by incubation with biotinylated proteins in PBS with 0.05% Tween20 for 2 h at room temperature. After four washes with PBS, plates were incubated with 1:2,000 dilution streptavidin-HRP (Sigma) in PBS for 30 min at room temperature and washed four times with PBS. Development was performed with 0.5 mg/ml o-phenylenediamine and 0.02% H2O2 at room temperature for 15 min, and reaction stopped by adding 100 μl/well of 0.5 N H2SO4. Competitive inhibition assays were done at end-point titers of GalNAc-transferase proteins with one hour preincubations with inhibitor.
(§2) In binding studies using lectins without biotinylation antibodies to the HIS-tag and the T7-tag, or in some experiments antibodies raised to GalNAc-T2 and -T4 enzymes were used to detect binding.
(§3) Inhibition experiments were used to further define the binding specificity of GalNAc-T2 and -T4 secreted soluble enzymes as well as lectin domains compared to Helix Pomatia lectin (Table IV).

GalNAc-T4 = GalNAc-T4 (Homo sapiens, UniProt Q8N4A0); conditions: 230 mM; cited from earlier work
Chain of GalNAc-T4 (Q8N4A0 whole entry): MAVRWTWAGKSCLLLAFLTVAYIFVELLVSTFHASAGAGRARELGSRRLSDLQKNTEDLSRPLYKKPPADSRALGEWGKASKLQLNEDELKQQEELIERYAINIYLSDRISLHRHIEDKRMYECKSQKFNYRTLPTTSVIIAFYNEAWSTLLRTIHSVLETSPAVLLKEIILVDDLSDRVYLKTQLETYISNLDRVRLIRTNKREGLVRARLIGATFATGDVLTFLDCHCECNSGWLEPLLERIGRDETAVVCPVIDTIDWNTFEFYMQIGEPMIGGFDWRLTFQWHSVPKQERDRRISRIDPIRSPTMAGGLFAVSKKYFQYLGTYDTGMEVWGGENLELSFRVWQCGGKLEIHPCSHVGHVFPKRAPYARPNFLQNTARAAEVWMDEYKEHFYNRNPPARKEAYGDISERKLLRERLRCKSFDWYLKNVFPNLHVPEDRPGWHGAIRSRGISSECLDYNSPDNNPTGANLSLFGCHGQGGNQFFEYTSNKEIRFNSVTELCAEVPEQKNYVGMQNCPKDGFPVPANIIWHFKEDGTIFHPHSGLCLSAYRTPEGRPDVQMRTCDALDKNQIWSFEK

[3] = molecular target: T2, secreted soluble GalNAc-T4 (Homo sapiens, UniProt Q8N4A0); experiment: Inhibition of secreted soluble GalNAc-T4 (sT4) binding to GalNAc-MUC1 glycopeptide, ELISA
T2 construct: 6xHis (N); thrombin cleavage site (N); T7 antibody site (N); made in house; host or cells: baculovirus (pAcGP67A), High Five insect cells
T2 sequence (Q8N4A0 36-578 limits assumed): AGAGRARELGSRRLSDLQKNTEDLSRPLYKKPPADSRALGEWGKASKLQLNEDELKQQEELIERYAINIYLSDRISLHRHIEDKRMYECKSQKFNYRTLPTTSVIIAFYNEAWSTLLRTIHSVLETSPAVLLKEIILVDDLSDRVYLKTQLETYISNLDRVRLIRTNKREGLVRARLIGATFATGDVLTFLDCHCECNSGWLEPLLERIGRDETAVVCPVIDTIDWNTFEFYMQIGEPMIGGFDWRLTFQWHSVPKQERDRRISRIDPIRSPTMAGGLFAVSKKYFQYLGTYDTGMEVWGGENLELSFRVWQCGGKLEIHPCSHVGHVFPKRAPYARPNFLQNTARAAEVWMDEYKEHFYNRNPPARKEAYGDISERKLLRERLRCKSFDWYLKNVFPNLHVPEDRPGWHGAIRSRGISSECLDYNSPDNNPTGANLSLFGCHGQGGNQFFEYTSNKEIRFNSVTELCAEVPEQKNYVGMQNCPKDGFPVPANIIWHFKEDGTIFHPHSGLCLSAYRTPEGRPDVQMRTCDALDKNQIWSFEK
Experimental: as §1, §3

[4] = molecular target: T3, secreted soluble GalNAc-T2 (Homo sapiens, UniProt Q10471); experiment: Inhibition of secreted soluble GalNAc-T2 (sT2) binding to GalNAc-MUC1 glycopeptide, ELISA
T3 construct: 6xHis (N); thrombin cleavage site (N); T7 antibody site (N); made in house; host or cells: baculovirus (pAcGP67A), High Five insect cells
T3 sequence (Q10471 52-571 limits assumed): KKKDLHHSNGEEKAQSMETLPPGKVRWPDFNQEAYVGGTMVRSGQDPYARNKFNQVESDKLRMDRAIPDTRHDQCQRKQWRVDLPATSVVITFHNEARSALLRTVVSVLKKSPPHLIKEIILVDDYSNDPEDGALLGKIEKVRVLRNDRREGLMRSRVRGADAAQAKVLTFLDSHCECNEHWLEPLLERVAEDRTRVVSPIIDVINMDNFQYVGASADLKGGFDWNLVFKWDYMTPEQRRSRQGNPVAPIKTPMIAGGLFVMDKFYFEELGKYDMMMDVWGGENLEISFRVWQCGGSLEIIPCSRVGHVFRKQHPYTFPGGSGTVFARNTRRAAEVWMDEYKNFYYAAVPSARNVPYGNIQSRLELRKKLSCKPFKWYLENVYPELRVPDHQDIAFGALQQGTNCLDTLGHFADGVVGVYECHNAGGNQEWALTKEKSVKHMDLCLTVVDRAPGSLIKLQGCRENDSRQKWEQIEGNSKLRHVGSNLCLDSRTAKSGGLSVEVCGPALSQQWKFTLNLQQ
Experimental: as §1, §3

[5] = system: GalNAc-T2 and -T4 secreted soluble enzymes as well as lectin domains; experiment: Inhibition of GalNAc-transferase lectin binding to GalNAc-glycopeptides, statements on GalNAc-T2 and -T4 together; design: species or system human; conditions: enzymes and isolated lectins
Experimental: as §1
Lectins and antibodies to carbohydrates usually recognize the anomeric configuration of the sugar structures they bind.
as §3

GalNAc-T4 lectin domain = molecular target: T4, GalNAc-T4 lectin domain (Homo sapiens, UniProt Q8N4A0); experiment: Inhibition of GalNAc-T4 lectin domain (T4ld) binding to GalNAc-MUC1 glycopeptide, ELISA
T4 construct: comprises amino acid residues 405-578 of GALNT4; made in house; host or cells: baculovirus (pAcGP67-A), virus made in Sf9, protein produced in High Five insect cells
T4 sequence (Q8N4A0 405-578): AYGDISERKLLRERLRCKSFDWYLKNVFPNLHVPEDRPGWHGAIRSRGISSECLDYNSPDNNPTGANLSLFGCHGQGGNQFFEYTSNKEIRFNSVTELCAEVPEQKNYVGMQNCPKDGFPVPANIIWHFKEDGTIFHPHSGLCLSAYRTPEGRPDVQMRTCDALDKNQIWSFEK
Experimental: as §1, §2, §3

[6] = molecular target: T5, human GalNAc-T2 (UDP-GalNAc:polypeptide N-acetylgalactosaminyltransferase T2) isolated truncated lectin domain (T2ld), HIS-tagged, amino acid residues 408-571 o (Homo sapiens, UniProt Q10471); assay type: binding
T5 sequence (Q10471 408-571): T1 sequence (Q10471 408-571)
Excerpt: (§4) In order to minimize the size and functional complexity of GalNAc-transferase lectins to be used as probes for binding studies, we used multiple sequence alignment analysis to predict and design suitable expression constructs for isolated lectin domains (FIG. 2). In the present invention a direct binding assay was developed using isolated lectin domains of GalNAc-T4 and -T2 with minimal size (FIG. 5). […] The lectin Helix Pomatia (HP) was used as a control plant lectin with known binding specificity for […].
as §1, §2, §3
(§5) The ligand target used in this Example is a GalNAc-MUC1 glycopeptide produced enzymatically from synthetic peptides.

[7] = molecular target: human GalNAc-T4 (UDP-GalNAc:polypeptide N-acetylgalactosaminyltransferase T4) isolated truncated lectin domain (T4ld), HIS-tagged, amino acid residues 405-578 o (Homo sapiens, UniProt Q8N4A0); experiment: biochemical; assay type: binding; conditions: isolated lectin domain
Chain of human GalNAc-T4 (UDP-GalNAc:polypeptide N-acetylgalactosaminyltransferase T4) isolated truncated lectin domain (T4ld), HIS-tagged, amino acid residues 405-578 o (Q8N4A0 405-578): as above
Excerpt: as §4, §1, §2, §3, §5

pIC50 (GalNAc-T2 lectin domain)	pIC50 [3]	pIC50 [4]	pIC50 (GalNAc-T4 lectin domain)	Compound	other results
				CC(=O)N[C@H]1[C@@H](OCc2ccccc2)O[C@H](CO)[C@@H](O)[C@@H]1O [BzlαGlcNAc]	MUC5AC in media (secretion) [1]: detected; MUC1 expression ([2]; HMFG2 blot, cells grown in GalNAc or Gal and GalNAc, listed as GlcNAcα-benzyl): same glycoforms at similar intensity; also recorded: no effect; SDS-PAGE migration of MUC1 (O-glycosylation) ([2]; cells grown in Gal and GalNAc): no effect
1.43	3.00	1.82	2.30	CC(=O)N[C@H]1C(O)O[C@H](CO)[C@H](O)[C@@H]1O (stereo partly drawn) [GalNAc, N-acetylgalactosamine]	inhibition of GalNAc-glycopeptide activity of GalNAc-T4 (GalNAc-T4): selective inhibition; inhibition of GalNAc-T2 and -T4 lectin mediated binding, in words [5]: selectively inhibited
				OC[C@H]1OC(O)[C@H](O)[C@@H](O)[C@H]1O (stereo partly drawn) [Gal]	inhibition of GalNAc-T2 lectin domain binding (in words) [6]: no inhibitory effect; inhibition of GalNAc-T4 lectin domain binding (in words) [7]: no inhibitory effect
< 1.00	< 1.00	< 1.00	< 1.00	OC[C@H]1O[C@@H](O[C@H]2[C@H](O)[C@@H](O)C(O)O[C@@H]2CO)[C@H](O)[C@@H](O)[C@H]1O (stereo partly drawn) [Lactose]	
